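In this assay, cells in 96-well plates receive the compound at five concentrations for 48 hours. Endpoints are linearly interpolated between the surrounding concentrations. Abbreviation: GI50, concentration required for 50% inhibition of growth. TGI denotes the concentration required for complete inhibition of growth.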
Key:
Experiment in all cases: DTP human tumour cell line panel, 48 h
[1] = test system: 786-0 renal
[2] = test system: A498 renal
[3] = test system: A549 NSCLC
[4] = test system: ACHN renal
[5] = test system: BT-549 breast
[6] = test system: CAKI-1 renal
[7] = test system: CCRF-CEM leukemia
[8] = test system: COLO 205 colon
[9] = test system: DU-145 prostate
[10] = test system: EKVX NSCLC
[11] = test system: HCT-116 colon
[12] = test system: HL-60(TB) leukemia
[13] = test system: HOP-62 NSCLC
[14] = test system: HOP-92 NSCLC
[15] = test system: HS 578T breast
[16] = test system: HT29 colon
[17] = test system: K-562 leukemia
[18] = test system: KM12 colon
[19] = test system: M14 melanoma
[20] = test system: MALME-3M melanoma
[21] = test system: MCF7 breast
[22] = test system: MDA-MB-231 breast
[23] = test system: MDA-MB-435
[24] = test system: MOLT-4 leukemia
[25] = test system: NCI-H226 lung
[26] = test system: NCI-H23 lung
[27] = test system: NCI-H460 lung
[28] = test system: NCI-H522 lung
[29] = test system: NCI/ADR-RES ovarian
[30] = test system: OVCAR-3 ovarian
[31] = test system: OVCAR-4 ovarian
[32] = test system: OVCAR-5 ovarian
[33] = test system: OVCAR-8 ovarian
[34] = test system: PC-3 prostate
[35] = test system: RPMI-8226 leukemia
[36] = test system: RXF 393 renal
[37] = test system: SF-268 CNS
[38] = test system: SF-295 CNS
[39] = test system: SF-539 CNS
[40] = test system: SK-MEL-2 melanoma
[41] = test system: SK-MEL-28 melanoma
[42] = test system: SK-MEL-5 melanoma
[43] = test system: SK-OV-3 ovarian
[44] = test system: SN12C renal
[45] = test system: SNB-75 CNS
[46] = test system: SR leukemia
[47] = test system: SW-620 colon
[48] = test system: T-47D breast
[49] = test system: TK-10 renal
[50] = test system: U251 CNS
[51] = test system: UACC-62 melanoma
[52] = test system: UO-31 renal

**Q.** How did the GI50 [1] turn out when `c1ccc(-c2nc(Nc3ccc(-c4nc5ccccc5[nH]4)cc3)nc(N3CCOCC3)n2)cc1` was run?
**A.** 257 nM

**Q.** What about the TGI [1] of the same molecule?
**A.** 1250 nM

**Q.** And the GI50 [2]?
**A.** 1090 nM

**Q.** What about the TGI [2] of the same molecule?
**A.** 2620 nM

**Q.** What about the GI50 [3] of the same molecule?
**A.** 1950 nM

**Q.** What about the TGI [3] of the same molecule?
**A.** 4.01 µM

**Q.** And the GI50 [4]?
**A.** 1250 nM

**Q.** What about the TGI [4] of the same molecule?
**A.** 2740 nM

**Q.** And the GI50 [5]?
**A.** 1980 nM

**Q.** What about the TGI [5] of the same molecule?
**A.** 3.9 µM

**Q.** And the GI50 [6]?
**A.** 1280 nM

**Q.** And the TGI [6]?
**A.** 2540 nM

**Q.** And the GI50 [7]?
**A.** 545 nM

**Q.** And the TGI [7]?
**A.** 3.12 µM

**Q.** And the GI50 [8]?
**A.** 1410 nM

**Q.** And the TGI [8]?
**A.** 3.13 µM

**Q.** What about the GI50 [9] of the same molecule?
**A.** 1210 nM

**Q.** And the TGI [9]?
**A.** 2490 nM

**Q.** What about the GI50 [10] of the same molecule?
**A.** 1590 nM

**Q.** And the TGI [10]?
**A.** 3.42 µM

**Q.** What about the GI50 [11] of the same molecule?
**A.** 394 nM

**Q.** And the TGI [11]?
**A.** 1620 nM

**Q.** And the GI50 [12]?
**A.** 31 nM

**Q.** What about the TGI [12] of the same molecule?
**A.** 601 nM

**Q.** And the GI50 [13]?
**A.** 1730 nM

**Q.** What about the TGI [13] of the same molecule?
**A.** 3.52 µM

**Q.** What about the GI50 [14] of the same molecule?
**A.** 1380 nM

**Q.** And the TGI [14]?
**A.** 3.05 µM

**Q.** And the GI50 [15]?
**A.** 1890 nM

**Q.** What about the TGI [15] of the same molecule?
**A.** 6.04 µM

**Q.** And the GI50 [16]?
**A.** 646 nM

**Q.** And the TGI [16]?
**A.** 2190 nM

**Q.** And the GI50 [17]?
**A.** 295 nM

**Q.** What about the TGI [17] of the same molecule?
**A.** 959 nM

**Q.** What about the GI50 [18] of the same molecule?
**A.** 1620 nM

**Q.** What about the TGI [18] of the same molecule?
**A.** 3.19 µM

**Q.** And the GI50 [19]?
**A.** 1340 nM

**Q.** And the TGI [19]?
**A.** 2900 nM

**Q.** And the GI50 [20]?
**A.** 2000 nM

**Q.** And the TGI [20]?
**A.** 3.85 µM

**Q.** And the GI50 [21]?
**A.** 877 nM

**Q.** And the TGI [21]?
**A.** 2850 nM

**Q.** And the GI50 [22]?
**A.** 1290 nM

**Q.** What about the TGI [22] of the same molecule?
**A.** 3.48 µM

**Q.** What about the GI50 [23] of the same molecule?
**A.** 1760 nM

**Q.** What about the TGI [23] of the same molecule?
**A.** 3.28 µM

**Q.** And the GI50 [24]?
**A.** 1330 nM

**Q.** What about the TGI [24] of the same molecule?
**A.** 3.53 µM

**Q.** What about the GI50 [25] of the same molecule?
**A.** 2400 nM

**Q.** What about the TGI [25] of the same molecule?
**A.** 4.58 µM

**Q.** What about the GI50 [26] of the same molecule?
**A.** 2070 nM

**Q.** What about the TGI [26] of the same molecule?
**A.** 4.78 µM

**Q.** And the GI50 [27]?
**A.** 822 nM

**Q.** What about the TGI [27] of the same molecule?
**A.** 2460 nM

**Q.** And the GI50 [28]?
**A.** 2100 nM

**Q.** And the TGI [28]?
**A.** 3.92 µM

**Q.** And the GI50 [29]?
**A.** 1930 nM

**Q.** What about the TGI [29] of the same molecule?
**A.** 5.53 µM

**Q.** What about the GI50 [30] of the same molecule?
**A.** 1520 nM

**Q.** And the TGI [30]?
**A.** 2980 nM

**Q.** What about the GI50 [31] of the same molecule?
**A.** 1680 nM

**Q.** And the TGI [31]?
**A.** 3.08 µM

**Q.** And the GI50 [32]?
**A.** 2160 nM

**Q.** And the TGI [32]?
**A.** 4.02 µM

**Q.** And the GI50 [33]?
**A.** 1720 nM

**Q.** And the TGI [33]?
**A.** 3.41 µM

**Q.** What about the GI50 [34] of the same molecule?
**A.** 1800 nM

**Q.** And the TGI [34]?
**A.** 3.64 µM

**Q.** And the GI50 [35]?
**A.** 1110 nM

**Q.** What about the TGI [35] of the same molecule?
**A.** 4.23 µM

**Q.** And the GI50 [36]?
**A.** 501 nM

**Q.** And the TGI [36]?
**A.** 2120 nM

**Q.** And the GI50 [37]?
**A.** 1640 nM

**Q.** What about the TGI [37] of the same molecule?
**A.** 3.24 µM

**Q.** What about the GI50 [38] of the same molecule?
**A.** 1250 nM

**Q.** What about the TGI [38] of the same molecule?
**A.** 2840 nM

**Q.** And the GI50 [39]?
**A.** 1420 nM

**Q.** And the TGI [39]?
**A.** 2940 nM

**Q.** And the GI50 [40]?
**A.** 1970 nM

**Q.** And the TGI [40]?
**A.** 3.59 µM

**Q.** And the GI50 [41]?
**A.** 1560 nM

**Q.** And the TGI [41]?
**A.** 3.09 µM

**Q.** What about the GI50 [42] of the same molecule?
**A.** 1690 nM

**Q.** What about the TGI [42] of the same molecule?
**A.** 3.15 µM

**Q.** And the GI50 [43]?
**A.** 2110 nM

**Q.** And the TGI [43]?
**A.** 4.23 µM

**Q.** And the GI50 [44]?
**A.** 1740 nM

**Q.** What about the TGI [44] of the same molecule?
**A.** 3.83 µM

**Q.** What about the GI50 [45] of the same molecule?
**A.** 1630 nM

**Q.** What about the TGI [45] of the same molecule?
**A.** 3.15 µM

**Q.** What about the GI50 [46] of the same molecule?
**A.** 125 nM

**Q.** And the TGI [46]?
**A.** 555 nM

**Q.** And the GI50 [47]?
**A.** 627 nM

**Q.** What about the TGI [47] of the same molecule?
**A.** 2170 nM

**Q.** What about the GI50 [48] of the same molecule?
**A.** 1620 nM

**Q.** What about the TGI [48] of the same molecule?
**A.** 3.82 µM

**Q.** And the GI50 [49]?
**A.** 2150 nM

**Q.** And the TGI [49]?
**A.** 3.76 µM

**Q.** And the GI50 [50]?
**A.** 535 nM

**Q.** And the TGI [50]?
**A.** 1760 nM

**Q.** What about the GI50 [51] of the same molecule?
**A.** 1660 nM

**Q.** What about the TGI [51] of the same molecule?
**A.** 3.48 µM

**Q.** What about the GI50 [52] of the same molecule?
**A.** 1320 nM

**Q.** What about the TGI [52] of the same molecule?
**A.** 2910 nM

— PubChem BioAssay (NCI)
